Reference: ChEMBL document CHEMBL4622917, “Structure Elucidation and Absolute Configuration Determination of Nortriterpenoids from Picramnia glazioviana” (J Nat Prod, 2020)
The source made the active and inactive calls. The calls are words filed in the database; no cut-off is given here.

What was measured:
[1] = tested on: MDA-MB-231; test: Cytotoxicity against human MDA-MB-231 cells assessed as cell viability at 100 uM incubated for 48 hrs by MTT assay relative to control; assay type: functional; conditions: MDA-MB-231, 48 h, read-out: Activity
[2] = tested on: SK-BR-3; test: Cytotoxicity against human SKBR3 cells assessed as cell viability at 100 uM incubated for 48 hrs by MTT assay relative to control; assay type: functional; conditions: SK-BR-3, 48 h, read-out: Activity
[3] = tested on: A549; test: Cytotoxicity against human A549 cells assessed as cell viability at 100 uM incubated for 48 hrs by MTT assay relative to control; assay type: functional; conditions: A549, 48 h, read-out: Activity
[4] = tested on: MDA-MB-231; test: Cytotoxicity against human MDA-MB-231 cells assessed as reduction in cell viability at 25 to 50 uM incubated for 48 hrs by MTT assay relative to control; assay type: functional, cell-based
[5] = tested on: MDA-MB-231; test: Cytotoxicity against human MDA-MB-231 cells incubated for 48 hrs by MTT assay; assay type: functional, cell-based; conditions: MDA-MB-231, 48 h
[6] = tested on: SK-BR-3; test: Cytotoxicity against human SKBR3 cells incubated for 48 hrs by MTT assay; assay type: functional, cell-based; conditions: SK-BR-3, 48 h
[7] = tested on: A549; test: Cytotoxicity against human A549 cells incubated for 48 hrs by MTT assay; assay type: functional, cell-based; conditions: A549, 48 h
[8] = tested on: MDA-MB-231; test: Cytotoxicity against human MDA-MB-231 cells assessed as reduction in cell viability at 50 to 100 uM incubated for 48 hrs by MTT assay relative to control; assay type: functional, cell-based
[9] = tested on: A549; test: Cytotoxicity against human A549 cells assessed as reduction in cell viability at 25 to 100 uM incubated for 48 hrs by MTT assay relative to control; assay type: functional, cell-based
[10] = tested on: MDA-MB-231; test: Cytotoxicity against human MDA-MB-231 cells assessed as reduction in cell viability at 12.5 to 100 uM incubated for 48 hrs by MTT assay relative to control; assay type: functional, cell-based
[11] = tested on: MDA-MB-231; test: Cytotoxicity against human MDA-MB-231 cells assessed as reduction in cell viability at 25 to 100 uM incubated for 48 hrs by MTT assay relative to control; assay type: functional, cell-based

COC(=O)[C@H](C1=C2[C@H]3O[C@H]3[C@@H]3[C@@]45COC(=O)C[C@@H]4OC(C)(C)[C@@H]5C[C@@H](OC(=O)c4ccccc4)[C@@]3(C)[C@]2(C)CCC1=O)C(C)(C)CC(=O)O
viability at 100 µM [1]: > 50% | viability at 100 µM [2]: > 50% | viability at 100 µM [3]: > 50% | Activity [4]: Active | IC50 [5]: > 10 µM | IC50 [6]: > 10 µM | IC50 [7]: > 10 µM

COC(=O)[C@H](C1=C2C=C[C@@H]3[C@@]45COC(=O)C[C@@H]4OC(C)(C)[C@@H]5C[C@@H](OC(=O)c4ccccc4)[C@@]3(C)[C@]2(C)CCC1=O)C(C)(C)CC(=O)O
viability at 100 µM [1]: > 50% | viability at 100 µM [2]: > 50% | viability at 100 µM [3]: > 50% | Activity [8]: Active | IC50 [5]: > 10 µM | IC50 [6]: > 10 µM | IC50 [7]: > 10 µM

COC(=O)CC(C)(C)[C@H](C(=O)OC)C1=C2CC[C@@H]3[C@@]45COC(=O)C[C@@H]4OC(C)(C)[C@@H]5C[C@@H](OC(=O)c4ccccc4)[C@@]3(C)[C@]2(C)CCC1=O
viability at 100 µM [1]: > 50% | viability at 100 µM [2]: > 50% | viability at 100 µM [3]: > 50% | IC50 [5]: > 10 µM | IC50 [6]: > 10 µM | IC50 [7]: > 10 µM

COC(=O)CC(C)(C)[C@H](C(=O)OC)C1=C2CC[C@@H]3[C@@]45COC(=O)C[C@@H]4OC(C)(C)[C@@H]5CC[C@@]3(C)[C@]2(C)CCC1=O
viability at 100 µM [1]: > 50% | viability at 100 µM [2]: > 50% | viability at 100 µM [3]: > 50% | Activity [8]: Active | Activity [9]: Active | IC50 [5]: > 10 µM | IC50 [6]: > 10 µM | IC50 [7]: > 10 µM

CC1(C)O[C@H]2CC(=O)OC[C@]23[C@H]2CCC4=C([C@@H]5CCC(=O)O5)C(=O)CC[C@@]4(C)[C@]2(C)[C@H](OC(=O)c2ccccc2)C[C@@H]13
viability at 100 µM [1]: > 50% | viability at 100 µM [2]: > 50% | viability at 100 µM [3]: > 50% | Activity [10]: Active | IC50 [5]: > 10 µM | IC50 [6]: > 10 µM | IC50 [7]: > 10 µM

CC1(C)O[C@H]2CC(=O)OC[C@]23[C@H]2CCC4=C([C@H]5CCC(=O)O5)C(=O)CC[C@@]4(C)[C@]2(C)[C@H](OC(=O)c2ccccc2)C[C@@H]13
viability at 100 µM [1]: > 50% | viability at 100 µM [2]: > 50% | viability at 100 µM [3]: > 50% | Activity [11]: Active | IC50 [5]: > 10 µM | IC50 [6]: > 10 µM | IC50 [7]: > 10 µM

CC1(C)O[C@H]2CC(=O)OC[C@]23[C@H]2CCC4=C([C@H]5CCC(=O)O5)C(=O)CC[C@@]4(C)[C@]2(C)CC[C@@H]13
viability at 100 µM [1]: > 50% | viability at 100 µM [2]: > 50% | viability at 100 µM [3]: > 50% | IC50 [5]: > 10 µM | IC50 [6]: > 10 µM | IC50 [7]: > 10 µM

COC(=O)[C@@H]1C2=C(CC[C@]3(C)C2=CC[C@@H]2[C@@]45COC(=O)C[C@@H]4OC(C)(C)[C@@H]5C[C@@H](O)[C@]23C)OC(=O)CC1(C)C
viability at 100 µM [1]: > 50% | viability at 100 µM [2]: > 50% | viability at 100 µM [3]: > 50% | IC50 [5]: > 10 µM | IC50 [6]: > 10 µM | IC50 [7]: > 10 µM
